Paper PMC2698029 (Journal of medicinal chemistry, 2009)
Where a name gives a salt, the structure may show the parent alone. Marks after values point to notes of the source that are not given here.

How the values were obtained:
[1] = system: Plasmodium berghei, ANKA strain; conditions: cited from earlier work; for Average survival time (not prolonged beyond day): single oral dose of 30 mg/kg, summary of Table 1
[2] = system: WT-MEF Noncancerous mouse embryonic fibroblasts; experiment: Cytotoxicity, SRB assay, WT-MEF noncancerous fibroblasts; format: cell-based; conditions: Fibroblast, 72 h, read-out: IC50 Values (μM)
[3] = Thermal stability in the solid state; format: physicochemical; conditions: 60 °C
[4] = system: Plasmodium berghei, ANKA strain; experiment: Single oral dose antimalarial efficacy in P. berghei-infected mice; format: in vivo, C57BL/6J male mice; conditions: single oral dose 144 mg/kg
[5] = Hydrolytic stability in DMSO/water; format: physicochemical; conditions: room temperature, 80/20 DMSO/water at pH 7.4
[6] = single oral dose of 30 mg/kg (printed in the 1 × 72 column)

Structure (SMILES)	Average Survival (days) After Infection [1, 6]	Average survival time (not prolonged beyond day) [1] [days]	IC50 [2] [µM]	Time stable in the solid state [3] [h]	Parasitemia at day 30 ([4]; 2 of the 5 mice, appeared sick)	Time stable in solution [5]	Stability in the solid state for one week ([3]; one week)	Adverse effects ([4]; malaria-infected mice)	% Suppression of Parasitemia (on day 3 post infection) [1, 6]
C[C@H]1[C@H](OC(=O)CCC(=O)[O-])O[C@@H]2O[C@@]3(C)CC[C@H]4[C@H](C)CC[C@@H]1[C@@]24OO3.[Na+] [Dimer 1c, sodium artesunate]	7.6 ^b days	≤ 11	–	–	–	–	–	–	–
C[C@H]1[C@@H](CC(C[C@H]2O[C@@H]3C[C@]4(C)CC[C@H]5[C@H](C)CC[C@@H]([C@H]2C)[C@@]35OO4)CS(=O)(=O)c2ccc(CO)cc2)O[C@@H]2C[C@]3(C)CC[C@H]4[C@H](C)CC[C@@H]1[C@@]24OO3 (some centres unmarked) [Dimer 4b, dimeric sulfone benzylic alcohol]	–	–	> 50	≥ 24	7–9%	at least 12 hours	–	–	–
C[C@H]1[C@@H](CC(C[C@H]2O[C@@H]3C[C@]4(C)CC[C@H]5[C@H](C)CC[C@@H]([C@H]2C)[C@@]35OO4)CS(=O)(=O)c2ccc(COC(=O)N(C)C)cc2)O[C@@H]2C[C@]3(C)CC[C@H]4[C@H](C)CC[C@@H]1[C@@]24OO3 [Dimer 4c, dimeric sulfone benzylic dimethyl carbamate]	–	–	> 50	≥ 24	–	at least 12 hours	stable	no adverse effects	–
CC(C)(N)CNC(=O)C[C@H]1CC[C@]2(CC1)OO[C@]1(O2)C2CC3CC(C2)CC1C3 [Dimer 7, OZ277 maleate]	10.7 ^b days	≤ 11	–	–	–	–	–	–	99.95 ^b %
